Assay results as given in publication PMC8881610 (Nature Communications, 2022).
Where “and” joins values, the source holds several entries; their conditions need not be identical. Equal values may be shown once. Read-outs that look alike come from different tables or passages of the source.

Assays:
[1] = biological target: T1, GIPR (Homo sapiens, UniProt P48546); experiment: cAMP accumulation assay (LANCE Ultra cAMP kit), GIPR WT, mutant or modified constructs; format: cell-based; parameters: acylated tirzepatide to the full-length or modified; Flag; expressed in transfected cells; host or cells: HEK293T; settings: HEK293T; for Emax: HEK-293T
T1 sequence (P48546 22-466): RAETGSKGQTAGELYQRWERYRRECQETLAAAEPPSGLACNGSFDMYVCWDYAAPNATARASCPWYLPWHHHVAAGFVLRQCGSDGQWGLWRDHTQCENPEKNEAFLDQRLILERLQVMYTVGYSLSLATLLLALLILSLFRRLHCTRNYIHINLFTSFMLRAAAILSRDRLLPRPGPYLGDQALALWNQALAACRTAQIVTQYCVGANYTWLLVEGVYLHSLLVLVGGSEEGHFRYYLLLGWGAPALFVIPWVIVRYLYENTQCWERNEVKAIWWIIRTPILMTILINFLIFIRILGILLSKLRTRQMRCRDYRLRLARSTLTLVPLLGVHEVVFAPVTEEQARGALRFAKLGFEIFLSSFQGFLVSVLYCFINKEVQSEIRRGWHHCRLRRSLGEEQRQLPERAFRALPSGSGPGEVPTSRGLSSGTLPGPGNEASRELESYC
Procedure: (§1) Human embryonic kidney 293 cells containing SV40 large T-antigen (HEK293T) were cultured in DMEM (Gibco) supplemented with 10% (v/v) fetal bovine serum (FBS, Gibco), 1 mM sodium pyruvate (Gibco) and 100 units/mL penicillin and 100 μg/mL streptomycin at 37 °C in 5% CO2. Chinese hamster ovary (CHO-K1) cells were cultured in F-12 (Gibco) containing 10% FBS, 100 units/mL penicillin and 100 μg/mL streptomycin at 37 °C in 5% CO2. For cAMP and receptor expression assays, HEK293T cells were seeded into 6-well cell culture plates at a density of 7 × 10^5 cells per well. After overnight incubation, cells were transfected with GIPR, GLP-1R or GCGR construct using Lipofectamine 2000 or Lipofectamine 3000 transfection reagent (Invitrogen). For whole-cell binding assay, CHO-K1 cells were seeded into 96-well fibronectin-treated cell culture plates at a density of 3 × 10^4 cells per well. After overnight incubation, cells were transfected with GIPR, GLP-1R or GCGR construct using Lipofectamine 2000 transfection reagent (Invitrogen). Following 24 h culturing, the transfected cells were ready for use.
A BRIL fusion protein was added at the N-terminal of the ECD with a TEV protease site and 2GSA linker between them. C-terminal 45 amino acids (Q422-C466) of the receptor were truncated. LgBiT was added at the end of helix 8 with a 15-amino acid (15AA) polypeptide linker in between, followed by a TEV protease cleavage site and an OMBP-MBP tag. […] The construct and various mutants of human GIPR were cloned into pcDNA3.1 vector for cAMP accumulation and whole-cell binding assays.
For GIPR, GLP-1R and GCGR, multi-targeting agonist stimulated cAMP accumulation was measured by a LANCE Ultra cAMP kit (PerkinElmer). After 24 h culture, the transfected cells were seeded into 384-well microtiter plates at a density of 3,000 cells per well in HBSS supplemented with 5 mM HEPES, 0.1% (w/v) BSA or 0.1% (w/v) casein and 0.5 mM 3-isobutyl-1-methylxanthine. The cells were stimulated with different concentrations of peptide agonists for 40 min at RT. Eu-cAMP tracer and ULight^TM-anti-cAMP were then diluted by cAMP detection buffer and added to the plates separately to terminate the reaction. Plates were incubated at RT for 1 h and the fluorescence intensity measured at 620 nm and […] by an EnVision multilabel plate reader (PerkinElmer).

[2] = biological target: T1, GIPR; experiment: Whole-cell binding assay, competition with 125I-GIP1-42; parameters: acylated tirzepatide to the full-length or modified; Flag; expressed in transfected cells
Procedure: as §1
For GIPR, CHO-K1 cells were cultured in F-12 medium with 10% FBS and seeded at a density of 30,000 cells/well in Isoplate-96 plates (PerkinElmer). The WT or mutant GIPR was transiently transfected using Lipofectamine 2000 transfection reagent as previous described. They were then washed twice using F-12 with 0.1% BSA or 0.1% casein, 33 mM HEPES, and incubated for 2 h at 37 °C. […] Following incubation, cells were washed three times with ice-cold PBS and lysed by addition of 50 μL lysis buffer (PBS supplemented with 20 mM Tris-HCl, 1% Triton X-100, pH 7.4). Fifty µL of scintillation cocktail (OptiPhase SuperMix, PerkinElmer) were added and the plates were subsequently counted for radioactivity (counts per minute, CPM) in a MicroBeta^2 microplate counter (PerkinElmer).

[3] = biological target: GCGR (Homo sapiens, UniProt P47871); experiment: Whole-cell binding assay, competition with 125I-GCG; parameters: V5 (C); 6×His (C); expressed in transfected cells; host or cells: CHO-K1
Procedure: as §1
For GLP-1R and GCGR, CHO-K1 cells (30,000 cells/well) were seeded into Isoplate-96 plates and incubated for 24 h at 37 °C in 5% CO2. The WT or mutant constructs were transiently transfected using Lipofectamine 2000 transfection reagent as previous described. They were then washed twice using F-12 with 0.1% BSA or 0.1% casein, 33 mM HEPES, and incubated for 2 h at 37 °C. […] Cells were washed three times with ice-cold PBS and lysed in PBS with 1% Triton X-100, 20 mM Tris-HCl. After addition of scintillation cocktail (PerkinElmer), radioactivity (CPM) was counted on a MicroBeta^2 microplate counter (PerkinElmer). Data were normalized to the WT response and analyzed using three-parameter logistic equation.

GCGR, sequence (P47871 26-477): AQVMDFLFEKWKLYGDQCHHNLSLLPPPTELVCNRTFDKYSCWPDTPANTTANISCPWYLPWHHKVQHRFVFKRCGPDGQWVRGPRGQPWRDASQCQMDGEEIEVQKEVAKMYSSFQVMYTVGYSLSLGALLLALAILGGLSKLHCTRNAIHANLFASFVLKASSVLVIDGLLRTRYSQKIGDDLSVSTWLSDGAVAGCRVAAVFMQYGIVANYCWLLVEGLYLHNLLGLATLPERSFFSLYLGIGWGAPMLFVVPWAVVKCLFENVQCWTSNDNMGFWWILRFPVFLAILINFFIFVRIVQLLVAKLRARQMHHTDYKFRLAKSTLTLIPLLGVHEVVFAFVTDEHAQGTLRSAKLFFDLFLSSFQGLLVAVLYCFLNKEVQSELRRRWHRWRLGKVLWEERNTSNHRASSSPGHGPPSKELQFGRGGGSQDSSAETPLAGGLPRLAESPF

Structure (SMILES): CCCCCCCCCCCCCCCC(=O)N[C@@H](CCC(=O)NCCCC[C@H](NC(=O)[C@H](CC(=O)O)NC(=O)[C@H](CO)NC(=O)[C@@H](NC(=O)[C@H](Cc1ccccc1)NC(=O)[C@@H](NC(=O)CNC(=O)[C@H](CCC(N)=O)NC(=O)C(C)(C)NC(=O)[C@@H](N)Cc1c[nH]cn1)[C@@H](C)O)[C@@H](C)O)C(=O)N[C@@H](CO)C(=O)N[C@@H](CCCCN)C(=O)N[C@@H](Cc1ccc(O)cc1)C(=O)N[C@@H](CC(C)C)C(=O)N[C@@H](CC(=O)O)C(=O)N[C@@H](CCC(=O)O)C(=O)N[C@@H](CCCNC(=N)N)C(=O)N[C@@H](C)C(=O)N[C@@H](C)C(=O)N[C@@H](CCC(N)=O)C(=O)N[C@@H](CC(=O)O)C(=O)N[C@@H](Cc1ccccc1)C(=O)N[C@H](C(=O)N[C@@H](CCC(N)=O)C(=O)N[C@@H](Cc1c[nH]c2ccccc12)C(=O)N[C@@H](CC(C)C)C(=O)N[C@@H](CC(C)C)C(=O)N[C@@H](CC(=O)O)C(=O)NCC(=O)NCC(=O)N1CCC[C@H]1C(=O)N[C@@H](CO)C(=O)N[C@@H](CO)C(=O)NCC(=O)N[C@@H](C)C(=O)N1CCC[C@H]1C(=O)N1CCC[C@H]1C(=O)N1CCC[C@H]1C(=O)N[C@@H](CO)C(N)=O)C(C)C)C(=O)O [Peptide 20]
- EC50 ([1]; GIPR WT, read-out: cAMP pEC50 (converted)): 0.0135 nM
- EC50 ([1]; GIPR, n = 4, SEM, read-out: cAMP pEC50 ± S.E.M. (converted)): 0.00447 nM
- Emax ([1]; GIPR WT, 0.1% BSA, read-out: cAMP accumulation Emax): 99.9 ± 1.18%
- Emax ([1]; GIPR WT, 0.1% casein, read-out: cAMP accumulation Emax): 100 ± 1.51%
- Emax ([1]; GIPR WT, read-out: cAMP Emax): 99.2 ± 1.85%
- Emax ([1]; GIPR, n = 4, SEM, read-out: cAMP Emax ± S.E.M.): 100 ± 1.48%
- IC50 ([2]; Fig. 7c receptor binding profile, n = 3 in duplicate, SEM, read-out: GIPR (pIC50 ± S.E.M.) (converted)): 6.61 nM
- IC50 ([2]; GIPR WT, 0.1% BSA, CHO-K1, read-out: Binding pIC50 (converted)): 13.2 nM
- binding Span ([2]; GIPR WT, 0.1% casein, CHO-K1): 99.92 ± 6.37
- IC50 ([2]; GIPR WT, 0.1% casein, CHO-K1, read-out: Binding pIC50 (converted)): 3.39 nM
- binding Span ([2]; GIPR WT, CHO-K1): 97.43 ± 3.89 % WT
- IC50 ([2]; GIPR WT, CHO-K1, read-out: binding pIC50 (converted)): 18.2 nM and 10.7 nM
- IC50 ([3]; Fig. 7c receptor binding profile, n = 3 in duplicate, SEM, read-out: GCGR (pIC50 ± S.E.M.) (converted)): 107 nM
- IC50 ([3]; GCGR WT, 0.1% BSA, CHO-K1, read-out: Binding pIC50 (converted)): 55 nM
- IC50 ([3]; GCGR WT, 0.1% casein, CHO-K1, read-out: Binding pIC50 (converted)): 16.6 nM
- binding Span ([3]; GCGR WT, CHO-K1): 99.29 ± 3.10 % WT
- IC50 ([3]; GCGR WT, CHO-K1, read-out: binding pIC50 (converted)): 89.1 nM
